Source: paper PMC6470589, “Contribution of Molecular Structure to Self-Assembling and Biological Properties of Bifunctional Lipid-Like 4-(N-Alkylpyridinium)-1,4-Dihydropyridines” (Pharmaceutics, 2019)
Values joined by “and” are separate entries in the source; they are usually repeats but may differ in a detail not shown here. Identical values can stand only once. “Also recorded” adds a separate entry of the source.

What was measured:
[1] = MTT cytotoxicity assay on HT-1080 tumor cells, 72 h; assay type: cell-based, human; conditions: human, HT-1080 fibrosarcoma cells
Description: (§1) Tumor cell lines HT-1080 (human connective tissue fibrosarcoma) and MH-22A (mouse hepatocarcinoma) were used. All of the cells were obtained from the American Type Culture Collection ((ATCC,) Rockville, MD, USA). HT-1080 and MH-22A cells (4 × 10^4 cell/mL) were seeded in 96-well plates in Dulbecco’s modified Eagle’s medium (DMEM) containing 10% fetal bovine serum and cultivated for 72 h at 37 °C, 5% CO2 by exposure to different compounds concentrations (100 μg/mL, 25 μg/mL, 6.25 μg/mL, and 1.56 μg/mL). Cell viability was measured using 3-(4,5-dimethylthiazol-2-yl)-2,5-diphenyl-tetrazolium bromide (MTT) assay. In brief, after incubating with compounds, the culture medium was removed and fresh medium with 0.2 mg/mL MTT was added in each well of the plate. After incubation (3 h, 37 °C, 5% CO2), the medium with MTT was removed, and 200 μL of DMSO was added at once to each sample. The samples were tested at 540 nm on a Tecan multiplate reader Infinite1000 (Tecan Austria GmbH, Salzburg, Austria). The IC50 was calculated using the program Graph Pad Prism® 3.0.

[2] = MTT cytotoxicity assay on MH-22A tumor cells, 72 h; assay type: cell-based, mouse; conditions: mouse, MH-22A hepatocarcinoma cells
Description: as §1

[3] = system: six prokaryotic (bacteria) and one eukaryotic (yeast) microorganism species; experiment: Toxicity screen, whole panel of microorganisms; assay type: cell-based; conditions: concentrations tested 10 to 0.001 mM
Description: An estimation of the toxicity of 4-(N-alkylpyridinium)-1,4-DHP derivatives 3, 6, 7, and 9–11 was performed using six prokaryotic (bacteria) and one eukaryotic (yeast) microorganism species according to the procedure elaborated by Suppi et al.. The microorganisms used in the study and their origin were: Bacillus subtilis subsp. spizizenii (ATCC® 6633™*, Microbiologics®, St Cloud, MN, USA), Escherichia coli (ATCC® 8739, Microbiologics®), Klebsiella pneumoniae (Latvian Microorganisms strain collection, LMKK, strain number 535, Riga, Latvia), Micrococcus luteus (LMKK, No. 25), Pseudomonas aeruginosa (NCTC 12924, Biosciences Ltd., Dublin, Ireland), Proteus mirabilis (LMKK, No 590), and Saccharomyces cerevisiae, CEN.PK2 strain [32].
Bacteria and yeast cultures were cultivated until their exponential growth phase (optical density max 1); then, 100 µL of cell suspension was taken, washed in deionised (DI) water, and added to serially diluted samples of corresponding 4-(N-alkylpyridinium)-1,4-DHPs in DI water. All 1,4-DHPs were tested in five serially diluted concentrations (10 mM, 1 mM, 0.1 mM, 0.01 mM, and 0.001 mM). Test organisms were exposed to 1,4-DHP derivatives in DI water on 96-well microplates (Corning, Corning, NY, USA) at 28 °C for 24 h without shaking in the dark. Then, a 5 µL sample was taken from each well and spotted on yeast extract, bactopeptone, dextrose broth (YPD) (yeast extract 1%, bactopeptone 2%, glucose 2% and agar 2%) plates to test the growth of yeasts and lysogeny broth (LB) (yeast extract 0.5%, bactopeptone 1%, NaCl 0.5% and agar 2%) to test the growth for bacteria. Plates were left in 30 °C for 24 h, and assessed for microbial growth.
If there were no colonies after incubation with 1,4-DHPs in the last concentration of (0.001 mM), then their boundary concentration was set to 0.0001 mM or 0.1 µM.

[4] = Self-assembling properties by dynamic light scattering (DLS); assay type: physicochemical; conditions: for PDI ± SD, 1 Set: freshly prepared samples; for Zeta-Pot ± SD: freshly prepared samples in water, 0.5 mg/mL (1–7), 0.25 mg/mL (8–10), 0.1 mg/mL (11); for PDI ± SD, 2 Set: two weeks after the first set, samples stored at r.t.; for Stability of nanoparticles: two weeks of storage at r.t., DLS
Description: Samples of compounds for dynamic light scattering (DLS) studies were prepared by thin-film hydration method in an aqueous solution at a concentration of 0.5 mg/mL for compounds 1–7, 0.25 mg/mL for compounds 8–10, and 0.1 mg/mL for compound 11. A corresponding amount of compounds was weighted in a round-bottom flask and dissolved in chloroform; then, the organic solvent was removed in vacuo, and the residue was dried in high vacuo for 1 h. An appropriate amount of deionised water was added to each flask for the preparation of stock solutions with the above-mentioned concentrations. Samples were prepared by sonication using a bath-type sonicator (Cole Parmer Ultrasonic Cleaner 8891CPX (Vernon Hills, IL, USA)). Samples were sonicated for 60 min at 50 °C.
The DLS measurements of the nanoparticles in an aqueous solution were carried out on a Zetasizer Nano ZSP (Malvern Panalytical Ltd., Malvern, UK) instrument with Malvern Instruments Ltd. Software 7.12, using the following specifications—medium: water; refractive index: 1.33; viscosity: 0.8872 cP; temperature: 25 °C; dielectric constant: 78.5; nanoparticles: liposomes; refractive index of materials: 1.60; detection angle: 173°; wavelength: 633 nm. Data were analysed using the multimodal number distribution software that was included with the instrument. The measurements were performed in triplicate in order to check their reproducibility.

[5] = system: neuroblastoma SH-SY5Y cell line; parameters: method as in doi:10.1016/j.crci.2013.07.003; conditions: read-out: Calcium antagonistic properties, IC50, SH-SY5Y; cited from earlier work
[6] = system: vascular smooth muscle A7R5 cell line; parameters: method as in doi:10.1016/j.crci.2013.07.003; conditions: read-out: Calcium antagonistic properties, IC50, A7R5; cited from earlier work
[7] = system: MH-22A (mouse hepatocarcinoma) cells; experiment: MTT cytotoxicity assay on MH-22A tumor cells, 72 h; assay type: cell-based; conditions: MTT, 72 h; ne = no effect in the tested concentration (up to 100 μg/mL)
Description: as §1

[8] = system: HT-1080 (human connective tissue fibrosarcoma) cells; experiment: MTT cytotoxicity assay on HT-1080 tumor cells, 72 h; assay type: cell-based; conditions: MTT, 72 h; ne = no effect in the tested concentration (up to 100 μg/mL)
Description: as §1

[9] = MTT, 72 h, ne = no effect in the tested concentration (up to 100 μg/mL), read-out: Cytotoxicity IC50, HT-1080
[10] = MTT, 72 h, ne = no effect in the tested concentration (up to 100 μg/mL), read-out: Cytotoxicity IC50, MH-22A

For `CCCCCCCCCCCC[n+]1cccc(C2C(C(=O)OCC)=C(C)NC(C)=C2C(=O)OCC)c1` [Compound 3], the IC50 at 72 h [1, 9] was 37 ± 2 µM, the IC50 at 72 h [2, 10] was 15 ± 1 µM and the “Effect on survival of microorganisms” value [3] was “toxic at various degrees”. The “PDI ± SD, 1 Set” value [4] was 0.14 and 0.14 ± 0.01, the “Zeta-Pot ± SD” value [4] was “+57.73 ± 2.30 mV” and the “PDI ± SD, 2 Set” value [4] was 0.17 and 0.17 ± 0.02. For the same molecule, the Stability of nanoparticles [4] was “stable after two weeks of storage; also recorded: confirmed the stability of nanoparticles”, the IC50 [5] was 5 to 14 µM and the IC50 [6] was 0.6 to 0.7 µM.

For `C#CCN1C(C)=C(C(=O)OCC)C(c2ccc[n+](CCCCCCCCCCCC)c2)C(C(=O)OCC)=C1C` [Compound 6], the IC50 at 72 h [2, 10] was 1 to 4 µM, the IC50 [7] was 1 ± 0.2 µM and the “Effect on survival of microorganisms” value [3] was “toxic at various degrees”. For the same molecule, the “PDI ± SD, 1 Set” value [4] was 0.15 and 0.15 ± 0.02, the “PDI ± SD, 2 Set” value [4] was 0.20 and 0.20 ± 0.01 and the Stability of nanoparticles [4] was “stable after two weeks of storage; also recorded: confirmed the stability of nanoparticles”. The IC50 [5] was 5 to 14 µM and the IC50 [6] was 0.6 to 0.7 µM.

In the case of `C#CCOC(=O)C1=C(C)NC(C)=C(C(=O)OCC#C)C1c1ccc[n+](CC)c1` [Compound 7], the IC50 at 72 h ([1]; as printed in the supplementary toxicity table, read-out: Cytotoxicity, IC50, HT-1080 (supplementary table, for comparison)) is reported as 1000 µM, the “Cytotoxicity IC50, HT-1080” value [8] is reported as “did not demonstrate any cytotoxic effect and ne” and the IC50 at 72 h ([2]; as printed in the supplementary toxicity table, read-out: Cytotoxicity, IC50, MH-22A (supplementary table, for comparison)) is reported as 1000 µM. For the same molecule, the “Cytotoxicity IC50, MH-22A” value [7] was “did not demonstrate any cytotoxic effect and ne”, the “PDI ± SD, 1 Set” value [4] was 0.90 and 0.90 ± 0.03 and the “Zeta-Pot ± SD” value [4] was −0.78 ± 0.26 mV. The “PDI ± SD, 2 Set” value [4] was 0.73 ± 0.09 and the Stability of nanoparticles [4] was “weak stability”.

In the case of `C#CCOC(=O)C1=C(C)NC(C)=C(C(=O)OCC#C)C1c1ccc[n+](CCCCCCCCCCCC)c1` [Compound 9], the IC50 at 72 h [1, 9] is reported as 1 to 4 µM, the IC50 [8] is reported as 2 ± 0.2 µM and the IC50 at 72 h [2, 10] is reported as 1 to 4 µM. For the same molecule, the IC50 [7] was 1 ± 0.2 µM, the “Effect on survival of microorganisms” value [3] was “toxic at various degrees” and the “PDI ± SD, 1 Set” value [4] was 0.36 and 0.36 ± 0.08. For the same molecule, the “Zeta-Pot ± SD” value [4] was “+32.00 ± 4.81 mV”, the “PDI ± SD, 2 Set” value [4] was 0.57 and 0.57 ± 0.05 and the Stability of nanoparticles [4] was “lost their homogeneity after two weeks of storage”.
